Series [1] relates to wheat seeds (winter wheat, TRZAW). In words: Method A: safener seed treatment then post-emergence herbicide, visual crop damage in greenhouse pots. Format: in vivo. How it is done: (§1) For the safener seed treatment, sufficient seeds were weighed into screw top glass bottles approximately twice the volume of the seeds.
(§2) The safener (mefenpyr-diethyl, formulated as suspension concentrate (SC)) was weighed out so that the required rates (g a.i./kg seed) would be obtained, dissolved in water (1 ml water per 10 g of seeds), and added to the seeds to produce a slurry.
(§3) The bottles were capped and then placed in an overhead shaker (set at medium speed for up to 1 hour) so that the seeds were evenly coated with the slurry. The bottles were uncapped and the seeds were sown as described above.
(§4) For the seed treatment process, the blind formulation (the SC formulation without the safener mefenpyr-diethyl) was used as seed treatment as described above.

The test system is the same in series [2]. In words: Method C: safener seed treatment then post-emergence herbicide plus safener tank mix, visual crop damage. Format: in vivo. As to the method:
as §1, §2, §3, §4

For series [3] the test system is unchanged. The experiment in a line: Method D: safener seed treatment then pre-emergence herbicide plus safener tank mix, visual crop damage. Format: in vivo. How it is done: as §1, §2, §3, §4
The test system is the same in series [4]. The experiment in a line: Prior-art method: post-emergence herbicide and tank-mix safener, visual crop damage in greenhouse pots. As to conditions: herbicide 200 g/ha post-emergence (BBCH11); no safener; 14 days after application; mean of at least 3 replicates.
The mark [5] stands for this setting: herbicide 200 g/ha post-emergence (BBCH11), no safener, 14 days after application.
The mark [6] stands for this setting: safener seed treatment 0.5 g/kg only, no herbicide.

As for `Cc1ccccc1CO[C@@H]1C[C@@]2(C(C)C)CC[C@]1(C)O2` (racemic) [Herbicide post-em., Cinmethylin], the “% crop damage” value is 28% in series [1] (setting [5]); 28% in series [2] (setting [5]); 17% in series [3] (herbicide 50 g/ha pre-emergence, no safener, 14 days after application); 28% in series [4].

With `CCOC(=O)C1=NN(c2ccc(Cl)cc2Cl)C(C)(C(=O)OCC)C1` (stereo not drawn) [Safener seed treatment, ethyl 1-(2,4-dichlorophenyl)-5-(ethoxycarbonyl)-5-methyl-2-pyrazoline-3-carboxylate], the “% crop damage” value is given as 0% in series [1] (setting [6]); 5% in series [2] (safener 200 g/ha in tank mix post-emergence only, no herbicide, 14 days after application); 0% in series [2] (setting [6]); 5% in series [3] (safener 200 g/ha in tank mix pre-emergence only, no herbicide, 14 days after application); 2% in series [3] (setting [6]).
